Measured values published in US20230183243A1, “HETEROARYL DERIVATIVES AND PHARMACEUTICAL COMPOSITION COMPRISING SAME AS ACTIVE INGREDIENT” (VORONOI INC., priority 2019, published 2023).

Tests used:
LRRK2 = LRRK2 (Homo sapiens, UniProt Q5S007); test: LRRK2 enzyme activity, ADP-Glo kinase assay; assay type: biochemical; set-up: purchased Invitrogen PR8604B; details: purified human LRRK2, ATP 10 μM, 25° C., 2 hours
Experimental: To evaluate the inhibitory activity of the compound according to the present invention against LRRK2 and JNKs, an experiment was performed as follows.
The compound of Example 7 was reacted with a purified human LRRK2 (Invitrogen #PR8604B) enzyme to evaluate an ability of the compound of Example 7 to inhibit the enzyme using a method as described below. A composition of 40 mM Tris-HCl (pH 7.4), 20 mM MgCl2, 0.5 mg/mL BSA, and 50 μM DTT was used as a reaction buffer, and all reactions of test substances were performed in the reaction buffer. The compound was diluted […] from a 10 mM DMSO stock using a serial dilution method, and enzyme activity was measured at final compound concentrations of 50, 10, 2, 0.4, 0.08, 0.016, 0.0032, 0.00064, 0.000128, 0.0000256, 0.00000512, and 0.000001024 μM. In the test, purified ATP (10 μM) and an enzyme substrate (0.2 μg) were reacted with a human LRRK2 (25 ng) enzyme at 25° C. for 2 hours, and the enzyme activity was then determined using an in vitro ADP-Glo™ kinase assay (Promega). An enzyme-activity reaction solution, an ADP-Glo reaction solution, and an enzyme-ability detection solution were reacted at a ratio of 2:2:1 to measure a degree of inhibition of the enzyme activity with luminescence. […]

MDA-MB-231 cells = test: Inhibition of proliferation of triple-negative breast cancer cells, CellTiter-Glo; assay type: cell-based; details: Homo sapiens, 120 h; MDA-MB-231, cultured for 5 days
Procedure, shortened: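 MDA-MB-231 cells pre-cultured 24 h (5% CO2, 37 °C), then exposed to compound for 5 days at 12 three-fold dilutions, final 10 μM to 0.05 nM. Viability read by CellTiter-Glo luminescence after 10 min at 37 °C; growth inhibition calculated relative to untreated solvent-control cells.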

TTK = biological target: T1, TTK (Homo sapiens, UniProt P33981); test: TTK enzyme activity, ADP-Glo kinase assay; assay type: biochemical; set-up: purchased SignalChem T20-10G; details: purified human TTK, ATP 10 μM, 25° C., 2 hours
T1 sequence (P33981 1-857): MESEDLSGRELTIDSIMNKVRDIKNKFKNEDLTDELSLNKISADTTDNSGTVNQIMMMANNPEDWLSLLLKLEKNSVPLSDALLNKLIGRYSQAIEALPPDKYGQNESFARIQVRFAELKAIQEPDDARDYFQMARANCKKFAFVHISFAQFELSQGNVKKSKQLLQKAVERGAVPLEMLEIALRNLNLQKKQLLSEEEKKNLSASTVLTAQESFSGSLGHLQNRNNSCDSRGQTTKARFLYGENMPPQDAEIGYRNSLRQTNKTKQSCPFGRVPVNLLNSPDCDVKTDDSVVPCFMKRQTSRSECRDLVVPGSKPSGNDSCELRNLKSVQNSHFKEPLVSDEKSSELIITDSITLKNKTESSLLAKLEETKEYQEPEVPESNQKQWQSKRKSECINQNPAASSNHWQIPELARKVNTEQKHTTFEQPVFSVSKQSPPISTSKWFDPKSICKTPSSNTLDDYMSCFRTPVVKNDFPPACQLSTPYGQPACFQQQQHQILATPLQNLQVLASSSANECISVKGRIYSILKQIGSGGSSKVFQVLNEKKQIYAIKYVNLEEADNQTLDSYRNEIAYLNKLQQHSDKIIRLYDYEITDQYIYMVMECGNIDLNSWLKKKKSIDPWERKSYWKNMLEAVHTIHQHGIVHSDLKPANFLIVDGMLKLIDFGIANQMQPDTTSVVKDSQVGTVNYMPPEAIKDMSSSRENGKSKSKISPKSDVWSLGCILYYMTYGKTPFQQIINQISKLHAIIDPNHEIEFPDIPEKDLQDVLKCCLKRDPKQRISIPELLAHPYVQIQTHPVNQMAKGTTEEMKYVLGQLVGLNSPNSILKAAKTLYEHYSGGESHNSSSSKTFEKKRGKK
Procedure, shortened: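 Purified human TTK (25 ng) incubated with 10 μM ATP and substrate (0.2 μg) for 2 h at 25 °C in Tris-HCl pH 7.4, MgCl2, BSA, DTT buffer. ADP formation read by ADP-Glo; inhibition calculated against untreated solvent control.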

Chain of LRRK2 (Q5S007 970-2527 limits assumed): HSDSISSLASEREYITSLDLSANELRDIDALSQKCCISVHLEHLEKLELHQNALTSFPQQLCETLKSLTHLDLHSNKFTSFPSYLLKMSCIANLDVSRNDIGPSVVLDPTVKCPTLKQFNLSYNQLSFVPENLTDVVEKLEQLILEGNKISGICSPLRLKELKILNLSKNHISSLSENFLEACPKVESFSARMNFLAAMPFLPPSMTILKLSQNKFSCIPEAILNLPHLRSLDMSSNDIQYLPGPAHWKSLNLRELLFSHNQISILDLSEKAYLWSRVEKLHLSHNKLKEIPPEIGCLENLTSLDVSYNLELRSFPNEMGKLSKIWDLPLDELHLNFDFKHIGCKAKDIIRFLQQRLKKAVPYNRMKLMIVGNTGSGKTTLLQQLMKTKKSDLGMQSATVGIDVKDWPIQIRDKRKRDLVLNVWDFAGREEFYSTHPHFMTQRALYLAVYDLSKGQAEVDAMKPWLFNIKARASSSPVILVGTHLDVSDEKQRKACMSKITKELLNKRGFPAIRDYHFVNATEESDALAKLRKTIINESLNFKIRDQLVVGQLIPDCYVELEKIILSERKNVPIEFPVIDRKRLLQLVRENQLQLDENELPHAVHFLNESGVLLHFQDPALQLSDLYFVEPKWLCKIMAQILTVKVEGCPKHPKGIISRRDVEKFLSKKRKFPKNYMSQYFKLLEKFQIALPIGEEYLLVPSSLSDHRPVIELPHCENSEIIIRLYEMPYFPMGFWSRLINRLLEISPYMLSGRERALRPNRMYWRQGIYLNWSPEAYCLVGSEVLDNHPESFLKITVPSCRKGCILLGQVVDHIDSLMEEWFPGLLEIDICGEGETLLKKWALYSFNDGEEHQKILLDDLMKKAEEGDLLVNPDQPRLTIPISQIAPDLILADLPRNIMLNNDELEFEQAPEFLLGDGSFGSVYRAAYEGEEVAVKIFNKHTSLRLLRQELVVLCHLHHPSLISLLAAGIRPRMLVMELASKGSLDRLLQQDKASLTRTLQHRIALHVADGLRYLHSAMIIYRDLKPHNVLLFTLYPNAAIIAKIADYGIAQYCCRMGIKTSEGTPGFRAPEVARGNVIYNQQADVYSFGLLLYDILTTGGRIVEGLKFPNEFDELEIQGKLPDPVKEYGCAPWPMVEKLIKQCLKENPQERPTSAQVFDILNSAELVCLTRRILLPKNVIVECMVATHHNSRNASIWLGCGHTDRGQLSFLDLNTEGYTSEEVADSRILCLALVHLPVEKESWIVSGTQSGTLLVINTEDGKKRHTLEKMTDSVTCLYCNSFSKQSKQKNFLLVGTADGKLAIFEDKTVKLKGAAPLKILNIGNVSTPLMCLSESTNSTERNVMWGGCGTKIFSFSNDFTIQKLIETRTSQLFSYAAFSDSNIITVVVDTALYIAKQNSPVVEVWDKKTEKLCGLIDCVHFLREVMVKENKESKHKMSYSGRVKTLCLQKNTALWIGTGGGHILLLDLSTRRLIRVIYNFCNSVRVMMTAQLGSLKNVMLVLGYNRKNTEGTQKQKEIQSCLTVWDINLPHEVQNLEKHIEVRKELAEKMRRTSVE

| IC50 (LRRK2) | GI50 (MDA-MB-231 cells) | IC50 (TTK) | Structure (SMILES) |
| --- | --- | --- | --- |
| < 1000 nM | < 100 nM | < 50 nM | COc1cc(-c2ccnn2C)ccc1Nc1nc(NC2CCCCC2)c2c(C#N)c[nH]c2n1 [Example 7, 4-(cyclohexylamino)-2-((2-methoxy-4-(1-methyl-1H-pyrazol-5-yl)phenyl)amino)-7H-pyrrolo[2,3-d] pyrimidine-5-carbonitrile] |
| – | < 100 nM | < 50 nM | COc1cc(N2CCCC2=O)ccc1Nc1cc(NC2CCCCC2)c2c(C#N)c[nH]c2n1 [Example 64, 4-(cyclohexylamino)-6-((2-methoxy-4-(2-oxopyrrolidin-1-yl)phenyl)amino)-1H-pyrrolo[2,3-b] pyridine-3-carbonitrile] |
